Assay results: the supplement of paper PMC10307832

How the values were obtained:
Experiment in all cases: relative viability (nuclei count vs DMSO), 5 days (fraction); higher = more cells survive
QS11 + OSI-027 = compound: C1CC2=C(C1)C=C(C=C2)OC3=NC(=C4C(=N3)N(C=N4)CC5=CC=C(C=C5)C6=CC=CC=C6)N[C@@H](CC7=CC=CC=C7)CO [QS11] + COc1cccc2cc(-c3nc([C@H]4CC[C@H](C(=O)O)CC4)n4ncnc(N)c34)[nH]c12 [OSI-027] (partner 0.5 µM)
How it was run: (§1)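 Dosing by pin tool came one day after lung cancer cell lines were seeded in 1536-well plates, using either one drug or a fixed anchor-drug dose plus five library-drug doses (not always all listed) in √10 steps. After 5 days, nuclei were counted on 4× images. Relative viability is treated-well nuclei count divided by vehicle-well nuclei count, and values are medians of duplicate plates.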

[1] = compound: C[As](C)SC[C@H](NC(=O)CC[C@H](N)C(=O)O)C(=O)NCC(=O)O [Darinaparsin] + CCNC(=O)c1noc(-c2cc(C(C)C)c(O)cc2O)c1-c1ccc(CN2CCOCC2)cc1 [Luminespib] (partner 0.01 µM)
How it was run: as §1

[2] = compound: C[As](C)SC[C@H](NC(=O)CC[C@H](N)C(=O)O)C(=O)NCC(=O)O [Darinaparsin] + Cc1cc(Nc2cc(N3CCN(C)CC3)nc(Sc3ccc(NC(=O)C4CC4)cc3)n2)n[nH]1 [Tozasertib] (partner 0.1 µM)
How it was run: as §1

[3] = compound: C[As](C)SC[C@H](NC(=O)CC[C@H](N)C(=O)O)C(=O)NCC(=O)O [Darinaparsin] + C[C@]1(O)C[C@@H](c2nc(-c3ccc4ccc(-c5ccccc5)nc4c3)c3c(N)nccn32)C1 [Linsitinib] (partner 1 µM)
How it was run: as §1

Cell Line: LCLC-97TM1
- relative viability (QS11 + OSI-027; first compound 0.08 µM): 0.405
- relative viability (QS11 + OSI-027; first compound 0.253 µM): 0.698
- relative viability (QS11 + OSI-027; first compound 2.53 µM): 0.565
- relative viability (QS11 + OSI-027; first compound 8 µM): 0.588
- relative viability ([1]; first compound 0.08 µM): 0.939
- relative viability ([1]; first compound 0.8 µM): 0.659
- relative viability ([1]; first compound 2.53 µM): 0.699
- relative viability ([1]; first compound 8 µM): 0.888
- relative viability ([2]; first compound 0.08 µM): 0.215
- relative viability ([2]; first compound 0.8 µM): 0.199
- relative viability ([2]; first compound 2.53 µM): 0.194
- relative viability ([2]; first compound 8 µM): 0.197
- relative viability ([3]; first compound 0.08 µM): 0.162
- relative viability ([3]; first compound 0.8 µM): 0.164
- relative viability ([3]; first compound 2.53 µM): 0.173
- relative viability ([3]; first compound 8 µM): 0.178
